Here are results for 13 compounds from article PMC3396687, “Moonlighting Peptides with Emerging Function” (PLoS ONE, 2012).

Where two headings read alike, the source gives them in different places. Where no end group is shown, it is not given here.

For series [1], the system named is Human foreskin fibroblasts (HFF) cells. Description: Toxicity against primary cultures of human cells (LIVE/DEAD). On the procedure:
Human foreskin fibroblasts (HFF) cells were grown in high glucose DMEM (Invitrogen, Carlsbad, CA) supplemented with 10% fetal bovine serum (Sigma, St. Louis, MO) and penicillin/streptomycin 100 U/ml (Invitrogen, Carlsbad, CA). The cultures were incubated at 37 °C in 95% air and 5% carbon dioxide with 95% humidity. After 24 hr of plating, 15 micro liters of a stock solution of each peptide was added and 72 hr later cell viability was estimated using the LIVE/DEAD cytotoxicity kit (Molecular Probes L-3224, Invitrogen, Carlsbad, CA) according to manufacturer instructions (4 μM Eth D-1 and 2 μM Calcein AM were used). The esterase substrate calcein AM gives a green fluorescent product when hydrolyzed; therefore, cells stained green have esterase activity and consequently an intact membrane capable of retaining the esterase product. Ethidium homodimer-1, an impermeable dye that binds DNA, enters only into compromised cellular membranes commonly observed in death cells.
All these concentrations are the dry weight of each peptide.
Images were taken on a Nikon Eclipse TE300 fluorescence microscope from representative fields. Each peptide was tested in two independent assays, each performed in triplicates.

A further series deals with E. coli (DH10B). It counts as cell-based, Escherichia coli. The conditions noted are these: for antibacterial activity (in words): LB, see Table S2, Figure 1A and 1B; for MIC: LB medium, 37°C, 10 h, OD 600 nm, lowest concentration where no visible growth occurred, four independent experiments. On the procedure: To evaluate the antibacterial activity of the Iztli peptides, the Escherichia coli DH1OB strain, Δ(mrr-hsd RMS-mcrBC) mcrA recA1 was used.
Serial dilutions of peptides were prepared in sterilized water. These concentrations are reported as the dry weight of each peptide. To determine the actual concentration of these peptides in solution, we estimated the molar absorption coefficient from the absorbance of each peptide at 214 nm using a spectrophotometer HP8452, kindly provided by Dr. Armando Gomez-Puyou. Then, the concentration of each peptide was calculated as: C = A/(L*MAC); where C: concentration (M), A: absorbance (arbitrary unit), L: length of the path of the spectrophotometer cell (cm) and MAC: the molar absorption coefficient (M^−1cm^−1).
The antibacterial activity of the synthetic peptides was examined in sterile 100-well plates (HC2 Pat. Pend., Finland) in a final volume of 200 µl as follows: aliquots (25 µl) of a suspension containing bacteria at a concentration of 10^5 CFU/mL in LB medium were added to 75 µl of water containing the peptide. The mixture was completed by the addition of 100 µl of 2×-concentrated LB medium. The plates were incubated at 37°C with constant orbital shaking for 10 h (at a rate specified by the equipment provider as “High”). Microbial growth was automatically determined by reading every 60 minutes the optical density at 600 nm with an OY Microplate Reader (Bioscreen C, Finland).
The minimum inhibitory concentration (MIC) was determined as the lowest concentration where no visible growth occurred. At least three different concentrations were tested for each peptide to find the corresponding MIC. All MICs were determined from four independent experiments. […]

Series [2] concerns S. cerevisiae WT (BY4741). Description: Area under the growth curve (AUC), wild type control of gene screen. The settings on record: 10 µM peptide, 24 h growth curve; control value of Figure S1. It counts as cell-based, Saccharomyces cerevisiae. The procedure: (§1) An early stationary culture for every essay was obtained from a single colony growing overnight in YPD medium. This culture was used to inoculate a fresh YPD medium to reach 0.04 O.D. in a total volume of 200 µL. Every peptide and strain were tested in 96 well plates, each well containing 200 µL, incubating at 30°C with shaking using a Bioscreen C (Oy Growth Curves Ab Ltd, Finland). The activity of these peptides on each strain was determined by following the cultures during 24 hrs and recording the O.D. every hour. Lack of change in O.D. measured during 24 hours was indicative of antifungal activity.
(§2) The cultures were prepared as in the antifungal activity assay described before (see above). To identify the strains lacking a gene required to inhibit in at least 50% the normal growth of the cells, the area under the growth curve (AUC) was calculated using software designed ad hoc in our laboratory. Thus, the ratio of the AUCs of the cells in the absence and in the presence of the peptide was determined; any strain rendering a ratio value between 1.0 and 2.0 was considered to carry a deletion of a critical gene.

Series [3] deals with null mutant of the STE4 gene (BY4741 MATa ∆ste4). Description: Screening for resistant gene deletions: STE4 null mutant. The class given is cell-based, Saccharomyces cerevisiae. The settings on record: 10 µM, Table S1 and Figure S1. The procedure: as §1, §2
In another series the test system is human cells. The conditions noted are these: cited from earlier work. The text has this:
Supplement pone.0040125.s019.doc, table 1: Supplementary Table S2. Designed selective antibacterial peptides | column: Toxicity (µM)

The subject of another series is bacteria. The settings on record: values marked (*), ref 36 ([3] in supplement, del Rio et al., 2001); cited from earlier work. The text has this:
Supplement pone.0040125.s019.doc, table 1: Supplementary Table S2. Designed selective antibacterial peptides | column: MIC (µM)

The next series has as its system isolated mitochondria. Description: Mitochondrial swelling. The class given is biochemical, Saccharomyces cerevisiae. The conditions noted are these: absorbance at 540 nm; IP1 117 µM, fIP1 100 µM, α-pheromone 160 µM (Figure 1C). The procedure:
We isolated mitochondria as described in Supporting Information S1 (see section I.2). Swelling of mitochondria was determined as reported before. Briefly, fresh mitochondria were diluted in 1 mL of 0.3 M mannitol, 5 mM MES, pH 6.8 (TEA) and 5 µL of ethanol. After 20 seconds, when optical density was stable, the peptides were added. The absorbance at 540 nm was recorded in a DW2 Aminco spectrophotometer (Olis, Inc, USA) in a split mode with magnetic stirring. A decrease in the absorbance was indicative of mitochondrial swelling. To determine the integrity of mitochondrial membranes, 10% of PEG 10 kDa (final concentration) was used to induce water release from mitochondria.
Mitochondria were obtained as described before. Briefly, yeast was incubated in YPD preculture medium for 24 h at 30° C, with agitation at 250 rpm, then the cells were cultured in YPlac at 30° C for 24 h at 250 rpm to improve respiration. Cells were collected and washed twice by centrifugation. The cells were suspended in cold isolating medium (5 mM MES, 0.6 M mannitol, 0.1% bovine serum albumin; the pH was adjusted to 6.8 with triethanolamine). The cells were disrupted into a Bead-Beater cell homogenizer (Biospec Products, USA) with 0.5 mm diameter glass beads, using three 20 seconds pulses separated by 40 seconds intervals. […] Protein concentration was determined by the Biuret method.

Series [4] deals with MatA cells from Saccharomyces cerevisiae (BY4741). Description: Antifungal activity (optical density growth curves). The class given is cell-based. The settings on record: YPD, 30°C, 24 h, OD and CFU; IP1 10 µM, fIP1 60 µM (Figure 3). The procedure: as §1
[5] abbreviates: 72 hr exposure, calcein AM / ethidium homodimer-1 staining.
[6] abbreviates: HFF cells, 72 hr exposure, LIVE/DEAD kit, > means no toxicity at the tested concentration, two independent assays in triplicates.

On to `CSCC[C@H](NC(=O)[C@@H]1CCCN1C(=O)[C@H](CCC(N)=O)NC(=O)CNC(=O)[C@@H]1CCCN1C(=O)[C@H](CCCCN)NC(=O)[C@H](CC(C)C)NC(=O)[C@H](CCC(N)=O)NC(=O)[C@H](CC(C)C)NC(=O)[C@H](Cc1c[nH]c2ccccc12)NC(=O)[C@H](Cc1c[nH]cn1)NC(=O)[C@H](Cc1c[nH]c2ccccc12)NC(=O)[C@H](Cc1ccccc1)NC(=O)[C@H](CCCNC(=N)N)NC(=O)[C@H](CC(N)=O)NC(=O)[C@H](CC(C)C)NC(=O)[C@H](Cc1ccccc1)NC(=O)[C@@H](N)CCCCN)C(=O)N[C@@H](Cc1ccc(O)cc1)C(=O)O` [IP1], for which the “toxicity on HFF cells (in words)” value in series [1] (setting [5]) is reported as “no toxicity”. Besides, the “antibacterial activity (in words)” value in the series on E. coli (DH10B) is “presented anti-bacterial activity”. In series [2], the “area under the growth curve (AUC)” value is 0.09. The “killing activity on STE4 null mutant” value in series [3] is on record as “resistant”.
With FLHSAKKF [PH(SCAP*)4], the “toxicity on HFF cells (in words)” value in series [1] (setting [5]) is recorded as “not toxic”. In series [1] (setting [6]), the Toxicity is on record as greater than 500 µM. In addition, in the series with E. coli (DH10B), the MIC (as a rule, the smallest concentration in the dilution series that meets the test's criterion for growth inhibition) was greater than 300 µM.
Turning to GIGKFLHSAKKFGKAFVGEIMNS [Magainin 2], the Toxicity in the series with human cells is greater than 170 µM. Moreover, in the series with bacteria, the minimum inhibitory concentration (MIC) was 16 µM.
In the case of GKFLHSAK [PH(SCAP*)2], the “toxicity on HFF cells (in words)” value in series [1] (setting [5]) is recorded as “not toxic”. Besides, the Toxicity in series [1] (setting [6]) is listed as greater than 500 µM. Moreover, in the series with E. coli (DH10B), the MIC is reported as greater than 300 µM.
For GKFLHSAKKFGK [PH(SCAP*)6] the same measures were “not toxic”, greater than 500 µM and greater than 300 µM.
In the same order, the values of HSAKKFGK [PH(SCAP*)5] are “not toxic”, greater than 500 µM and greater than 300 µM.
With KFLHSAKK [PH(SCAP*)3], the “toxicity on HFF cells (in words)” value in series [1] (setting [5]) is recorded as “not toxic”. The compound also showed a Toxicity in series [1] (setting [6]) greater than 500 µM. This compound came in with an MIC in the series on E. coli (DH10B) greater than 300 µM.
As to “KFLNRF [fIP1, the six residues at the N-terminus of IP1, control peptide]”, the mitochondrial swelling activity result in the series on isolated mitochondria is listed as “did not exhibit any activity”. The “antifungal (killing) activity” value in series [4] is “did not exhibit any activity”.
As to KWKLFKKI [PH(SCAP*)1], the “toxicity on HFF cells (in words)” value in series [1] (setting [5]) is “not toxic”. Besides, the Toxicity in series [1] (setting [6]) was greater than 460 µM.
Regarding “KWKLFKKIEKVGQNIRDGIIKAGPAVAVVGQATQIAK (Cecropin-A; UniProt P01507 27-63, looked up) [Cecropin A]”, the Toxicity with human cells was greater than 50 µM. For the same compound, the minimal inhibitory concentration (MIC) in the series on bacteria is 0.1 µM.
Consider LKKLKLLLKLL [PH(CeMa)1], for which, in series [1], the Toxicity was greater than 90 µM and the “toxicity on HFF cells (in words)” value is given as “none of the peptides induced cell death”.
In the same order, the values of LKKLLKLLL [PH(Magainin)1] are greater than 120 µM and “none of the peptides induced cell death”.
For the compound “RRLKDFWHWLQLKPGQPMY [IP2, 19-residue Iztli peptide: α-pheromone with 6 residues added at the N-terminus]”, in series [1], the Toxicity is given as greater than 36 µM and the “toxicity on HFF cells (in words)” value is “no toxicity”. Further, in the series with E. coli (DH10B), the MIC is given as 20 µM and the “antibacterial activity (in words)” value is “presented anti-bacterial activity”.
